Here are results for 4 cell lines from the supplement of paper PMC10307832.

What all share (assay): relative viability (nuclei count vs DMSO), 5 days (fraction); higher = more cells survive
Compound in the test “OSI-027 + Dasatinib”: COc1cccc2cc(-c3nc([C@H]4CC[C@H](C(=O)O)CC4)n4ncnc(N)c34)[nH]c12 [OSI-027] + Cc1nc(Nc2ncc(C(=O)Nc3c(C)cccc3Cl)s2)cc(N2CCN(CCO)CC2)n1 [Dasatinib] (partner 0.075 µM)
The essentials:
(§1)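 Medians of duplicate plates are given as relative viability. That measure is the nuclei count in treated wells divided by the count in vehicle wells. Counts were taken on 4× images of lung cancer cell lines in 1536-well plates, 5 days after pin-tool dosing the day after seeding with one drug alone or a fixed anchor-drug dose plus five library-drug doses (not always all listed) in √10 steps.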

Compound in the test “Alpelisib + Lapatinib”: Cc1nc(NC(=O)N2CCC[C@H]2C(N)=O)sc1-c1ccnc(C(C)(C)C(F)(F)F)c1 [Alpelisib] + CS(=O)(=O)CCNCc1ccc(-c2ccc3ncnc(Nc4ccc(OCc5cccc(F)c5)c(Cl)c4)c3c2)o1 [Lapatinib] (partner 2 µM)
The gist of the method: as §1

Compound in the test “Alpelisib + Crizotinib”: Cc1nc(NC(=O)N2CCC[C@H]2C(N)=O)sc1-c1ccnc(C(C)(C)C(F)(F)F)c1 [Alpelisib] + C[C@@H](Oc1cc(-c2cnn(C3CCNCC3)c2)cnc1N)c1c(Cl)ccc(F)c1Cl [Crizotinib] (partner 1 µM)
The gist of the method:
as §1

Compound in the test “Alpelisib + Olaparib”: Cc1nc(NC(=O)N2CCC[C@H]2C(N)=O)sc1-c1ccnc(C(C)(C)C(F)(F)F)c1 [Alpelisib] + O=C(c1cc(Cc2n[nH]c(=O)c3ccccc23)ccc1F)N1CCN(C(=O)C2CC2)CC1 [Olaparib] (partner 8 µM)
The gist of the method:
as §1

NCI-H1944: the relative viability with OSI-027 + Dasatinib (first compound 0.01 µM) was determined as 0.192; in the test with OSI-027 + Dasatinib (first compound 0.03162 µM), 0.204; in the test with OSI-027 + Dasatinib (first compound 0.1 µM), 0.191; with OSI-027 + Dasatinib (first compound 0.3162 µM) it was 0.178; with OSI-027 + Dasatinib (first compound 1 µM), 0.162; with Alpelisib + Lapatinib (first compound 0.04 µM), 0.815. In addition, the relative viability with Alpelisib + Lapatinib (first compound 0.1265 µM) was found to be 1.04; in the test with Alpelisib + Lapatinib (first compound 0.4 µM), 0.763; in the test with Alpelisib + Lapatinib (first compound 1.265 µM), 0.621; with Alpelisib + Lapatinib (first compound 4 µM), 0.451; with Alpelisib + Crizotinib (first compound 0.04 µM), 1.01; with Alpelisib + Crizotinib (first compound 0.1265 µM), 1.24. Moreover, the relative viability with Alpelisib + Crizotinib (first compound 0.4 µM) was 1.14; in the test with Alpelisib + Crizotinib (first compound 1.265 µM), 0.725; with Alpelisib + Crizotinib (first compound 4 µM), 0.523; in the test with Alpelisib + Olaparib (first compound 0.04 µM), 0.41; in the test with Alpelisib + Olaparib (first compound 0.1265 µM) it was 0.431; with Alpelisib + Olaparib (first compound 0.4 µM) it was 0.427. For the same cell line, the relative viability with Alpelisib + Olaparib (first compound 1.265 µM) was determined as 0.341; in the test with Alpelisib + Olaparib (first compound 4 µM), 0.337.

In the case of NCI-H1975, the relative viability in the test with OSI-027 + Dasatinib (first compound 0.01 µM) is 0.309; with OSI-027 + Dasatinib (first compound 0.03162 µM) it was 0.362; with OSI-027 + Dasatinib (first compound 0.1 µM) it was 0.334; in the test with OSI-027 + Dasatinib (first compound 0.3162 µM) it was 0.301; in the test with OSI-027 + Dasatinib (first compound 1 µM), 0.316; with Alpelisib + Lapatinib (first compound 0.04 µM) it was 0.874. The relative viability with Alpelisib + Lapatinib (first compound 0.1265 µM) worked out at 0.862; with Alpelisib + Lapatinib (first compound 0.4 µM), 0.889; with Alpelisib + Lapatinib (first compound 1.265 µM), 0.619; in the test with Alpelisib + Lapatinib (first compound 4 µM), 0.483; with Alpelisib + Crizotinib (first compound 0.04 µM), 0.877; with Alpelisib + Crizotinib (first compound 0.1265 µM), 1.01. Also, the relative viability with Alpelisib + Crizotinib (first compound 0.4 µM) was 0.968; with Alpelisib + Crizotinib (first compound 1.265 µM) it was 0.753; in the test with Alpelisib + Crizotinib (first compound 4 µM) it was 0.68; with Alpelisib + Olaparib (first compound 0.04 µM) it was 0.689; with Alpelisib + Olaparib (first compound 0.1265 µM), 0.859; in the test with Alpelisib + Olaparib (first compound 0.4 µM), 0.838. Moreover, the figures for the relative viability in the test with Alpelisib + Olaparib (first compound 1.265 µM) and with Alpelisib + Olaparib (first compound 4 µM) were 0.563 and 0.625, respectively.

On to NCI-H1993, for which the relative viability came out at 0.516 in the test with OSI-027 + Dasatinib (first compound 0.01 µM); 0.543 in the test with OSI-027 + Dasatinib (first compound 0.03162 µM); 0.469 with OSI-027 + Dasatinib (first compound 0.1 µM); 0.541 in the test with OSI-027 + Dasatinib (first compound 0.3162 µM); 0.549 with OSI-027 + Dasatinib (first compound 1 µM); 0.775 with Alpelisib + Lapatinib (first compound 0.04 µM). The relative viability with Alpelisib + Lapatinib (first compound 0.1265 µM) is 0.676; with Alpelisib + Lapatinib (first compound 0.4 µM), 0.913; with Alpelisib + Lapatinib (first compound 1.265 µM) it was 0.774; with Alpelisib + Lapatinib (first compound 4 µM), 0.711; with Alpelisib + Crizotinib (first compound 0.04 µM) it was 0.817; with Alpelisib + Crizotinib (first compound 0.1265 µM), 0.845. In addition, the relative viability with Alpelisib + Crizotinib (first compound 0.4 µM) stood at 0.799; in the test with Alpelisib + Crizotinib (first compound 1.265 µM), 0.603; with Alpelisib + Crizotinib (first compound 4 µM) it was 0.604; with Alpelisib + Olaparib (first compound 0.04 µM), 1.01; in the test with Alpelisib + Olaparib (first compound 0.1265 µM), 0.868; with Alpelisib + Olaparib (first compound 0.4 µM), 1.13. Besides, the relative viability in the test with Alpelisib + Olaparib (first compound 1.265 µM) is 0.585; with Alpelisib + Olaparib (first compound 4 µM) it was 0.735.

Regarding NCI-H2009, the relative viability in the test with OSI-027 + Dasatinib (first compound 0.01 µM) is 0.271; with OSI-027 + Dasatinib (first compound 0.03162 µM), 0.264; with OSI-027 + Dasatinib (first compound 0.1 µM) it was 0.248; with OSI-027 + Dasatinib (first compound 0.3162 µM) it was 0.213; in the test with OSI-027 + Dasatinib (first compound 1 µM), 0.207; with Alpelisib + Lapatinib (first compound 0.04 µM), 0.99. The relative viability with Alpelisib + Lapatinib (first compound 0.1265 µM) was determined as 1; with Alpelisib + Lapatinib (first compound 0.4 µM), 1.11; in the test with Alpelisib + Lapatinib (first compound 1.265 µM), 0.89; with Alpelisib + Lapatinib (first compound 4 µM) it was 0.889; with Alpelisib + Crizotinib (first compound 0.04 µM) it was 1.04; with Alpelisib + Crizotinib (first compound 0.1265 µM), 1.02. Further, the relative viability with Alpelisib + Crizotinib (first compound 0.4 µM) amounted to 1.11; in the test with Alpelisib + Crizotinib (first compound 1.265 µM), 0.953; with Alpelisib + Crizotinib (first compound 4 µM) it was 0.831; with Alpelisib + Olaparib (first compound 0.04 µM), 0.756; with Alpelisib + Olaparib (first compound 0.1265 µM), 0.659; with Alpelisib + Olaparib (first compound 0.4 µM) it was 0.674. Further, the relative viability is 0.647 with Alpelisib + Olaparib (first compound 1.265 µM) and 0.599 with Alpelisib + Olaparib (first compound 4 µM).
